Laboratory results as given in ChEMBL document CHEMBL5143513, “Design, synthesis and biological evaluation of bisindole derivatives as anticancer agents against Tousled-like kinases” (Eur J Med Chem, 2022).
Calls of active or inactive are those of the source. No cut-off for these calls is given here.

Columns and labels:
[1] = Cytotoxicity against human MRC5 cells assessed as reduction in cell viability incubated for 72 hrs by MTT assay; type: toxicity, cell-based
A549 = experiment: Cytotoxicity against human A549 cells assessed as reduction in cell viability incubated for 72 hrs by MTT assay; type: functional, cell-based; conditions: A549, 72 h
[2] = Cytotoxicity against human IMR-90 cells assessed as reduction in cell viability incubated for 72 hrs by MTT assay; type: toxicity, cell-based
MDA-MB-231 [3] = experiment: Cytotoxicity against human MDA-MB-231 cells assessed as reduction in cell viability incubated for 72 hrs by MTT assay; type: functional, cell-based; conditions: MDA-MB-231, 72 h
MDA-MB-231 [4] = experiment: Effect on cell cycle progression in human MDA-MB-231 cells assessed as accumulation of cells at S phase at 2 uM by PI staining based flow cytometric analysis; type: functional
[5] = target: T1, Serine/threonine-protein kinase tousled-like 2 (Homo sapiens, UniProt Q86UE8); experiment: Binding affinity to full length FLAG/HA/Strep-tagged TLK2 (388 to 772 residues) (unknown origin) transfected in HEK293T cells by Alexa Fluor 647 staining based FRET assay; type: cell-based
Target sequence in this assay (Q86UE8 whole entry, the tested form may be a part): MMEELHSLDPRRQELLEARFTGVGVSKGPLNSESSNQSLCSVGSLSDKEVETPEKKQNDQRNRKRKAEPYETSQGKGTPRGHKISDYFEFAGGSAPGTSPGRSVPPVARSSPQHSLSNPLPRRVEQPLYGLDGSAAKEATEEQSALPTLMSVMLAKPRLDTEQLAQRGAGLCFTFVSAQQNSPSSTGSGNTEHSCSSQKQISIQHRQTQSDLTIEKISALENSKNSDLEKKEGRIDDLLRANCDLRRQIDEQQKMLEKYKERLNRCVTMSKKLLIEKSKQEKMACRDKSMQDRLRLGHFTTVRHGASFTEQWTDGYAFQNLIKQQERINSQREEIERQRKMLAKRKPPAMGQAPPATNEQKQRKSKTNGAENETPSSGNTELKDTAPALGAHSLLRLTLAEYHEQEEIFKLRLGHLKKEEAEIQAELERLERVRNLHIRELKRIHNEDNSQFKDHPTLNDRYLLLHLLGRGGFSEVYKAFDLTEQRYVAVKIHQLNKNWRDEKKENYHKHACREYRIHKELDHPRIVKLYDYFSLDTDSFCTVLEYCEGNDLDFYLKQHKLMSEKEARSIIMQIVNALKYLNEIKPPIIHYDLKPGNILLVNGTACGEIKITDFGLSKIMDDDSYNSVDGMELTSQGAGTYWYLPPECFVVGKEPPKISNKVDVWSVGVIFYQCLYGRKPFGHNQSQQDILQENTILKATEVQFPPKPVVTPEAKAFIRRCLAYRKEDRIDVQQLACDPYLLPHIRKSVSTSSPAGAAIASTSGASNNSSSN

MDA-MB-231 [6] = experiment: Cytotoxicity against human MDA-MB-231 cells assessed as reduction in cell viability at 0.5 uM measured after 72 hrs by MTT assay; type: functional
HCT-116 = experiment: Cytotoxicity against human HCT-116 cells assessed as reduction in cell viability incubated for 72 hrs by MTT assay; type: functional, cell-based; conditions: HCT-116, 72 h
[7] = target: T1, Serine/threonine-protein kinase tousled-like 2; experiment: Inhibition of full length FLAG/HA/Strep-tagged TLK2 (unknown origin) transfected in HEK293T cells assessed as reduction in ASF1a phosphorylation at S166 residue at 5 uM by Western blot analysis; type: cell-based
Target sequence in this assay (Q86UE8 whole entry, looked up, the tested form may be a part): as the sequence (Q86UE8 whole entry, the tested form may be a part) above

MDA-MB-231 [8] = experiment: Antiproliferative activity against human MDA-MB-231 cells assessed as reduction in cell growth at 0.25 uM by trypan blue assay; type: functional, cell-based
[9] = target: Histone chaperone ASF1A (Homo sapiens) (UniProt Q9Y294); experiment: Inhibition of ASF1a phosphorylation at S166 residue in human MDA-MB-231 cells at 10 uM incubated for 4 hrs by Western blot analysis; type: cell-based
MDA-MB-231 [10] = experiment: Induction of DNA damage in human MDA-MB-231 cells at 10 uM incubated for 4 hrs by gel electrophoresis method; type: functional, cell-based
U2OS [11] = experiment: Inhibition of DNA replication in PCNA positive human U2OS cells assessed as reduction in EdU level at 50 uM incubated for 4 hrs by immunofluorescence staining based EdU incorporation assay; type: functional, cell-based
[12] = target: T1, Serine/threonine-protein kinase tousled-like 2; experiment: Inhibition of full length FLAG/HA/Strep-tagged TLK2 (unknown origin) in human U2OS cells assessed as reduction in ASF1 phosphorylation at 16.7 uM measured after 4 hrs by Western blot analysis; type: cell-based
Target sequence in this assay (Q86UE8 whole entry, looked up, the tested form may be a part): as the sequence (Q86UE8 whole entry, the tested form may be a part) above

U2OS [13] = experiment: Effect on cell cycle progression in human U2OS cells assessed as accumulation of cells at early stage of S phase measured after 8 hrs by PI staining based flow cytometric analysis; type: functional
U2OS [14] = experiment: Induction of DNA damage in PCNA positive human U2OS cells assessed as increase in H2AX phosphorylation at S139 residue in S phase by measuring fluorescence intensity at 10 uM incubated for 4 hrs by immunofluorescence microscopy; type: functional, cell-based
[15] = target: T1, Serine/threonine-protein kinase tousled-like 2; experiment: Inhibition of full length FLAG/HA/Strep-tagged TLK2 (unknown origin) transfected in HEK293T cells assessed as reduction in TLK mediated ASF1a phosphorylation at 50 uM by Western blot analysis; type: cell-based
Target sequence in this assay (Q86UE8 whole entry, looked up, the tested form may be a part): as the sequence (Q86UE8 whole entry, the tested form may be a part) above

U2OS [16] = experiment: Induction of DNA damage in human U2OS cells assessed as increase in CHK2 phosphorylation at T68 residue at 5 to 10 uM incubated for 4 hrs by Western blot analysis; type: functional, cell-based; conditions: dose 5-10 µM
U2OS [17] = experiment: Induction of DNA damage in human U2OS cells assessed as increase in RPA2 phosphorylation at S4/S8 residue at 5 to 10 uM incubated for 4 hrs by Western blot analysis; type: functional, cell-based; conditions: dose 5-10 µM
U2OS [18] = experiment: Inhibition of DNA replication in PCNA positive human U2OS cells assessed as reduction in EdU level at 2.5 to 20 uM incubated for 4 hrs by immunofluorescence staining based EdU incorporation assay; type: functional, cell-based; conditions: dose 2.5-20 µM
[19] = target: T1, Serine/threonine-protein kinase tousled-like 2; experiment: Inhibition of full length FLAG/HA/Strep-tagged TLK2 (unknown origin) in human MDA-MB-231 cells assessed as reduction in ASF1 phosphorylation at 16.7 uM measured after 4 hrs by Western blot analysis; type: cell-based
Target sequence in this assay (Q86UE8 whole entry, looked up, the tested form may be a part): as the sequence (Q86UE8 whole entry, the tested form may be a part) above

U2OS [20] = experiment: Induction of DNA damage in human U2OS cells assessed as increase in KAP1 phosphorylation at S824 residue at 5 to 10 uM incubated for 4 hrs by Western blot analysis; type: functional, cell-based; conditions: dose 5-10 µM
[21] = target: T1, Serine/threonine-protein kinase tousled-like 2; experiment: Inhibition of full length FLAG/HA/Strep-tagged TLK2 (unknown origin) in human U2OS cells assessed as ASF1 phosphorylation by measuring decrease in band shift at 16.7 uM measured after 4 hrs by Western blot analysis; type: cell-based
Target sequence in this assay (Q86UE8 whole entry, looked up, the tested form may be a part): as the sequence (Q86UE8 whole entry, the tested form may be a part) above

U2OS [22] = experiment: Effect on cell cycle progression in human U2OS cells assessed as accumulation of cells at S phase measured after 8 hrs by PI staining based flow cytometric analysis; type: functional; conditions: dose 2.5-20 µM, DDE = dose-dependent effect
U2OS [23] = experiment: Induction of DNA damage in human U2OS cells assessed as increase in CHK1 phosphorylation at S345 residue at 2.5 to 5 uM incubated for 4 hrs by Western blot analysis; type: functional, cell-based; conditions: dose 2.5-5 µM

Chain of Histone chaperone ASF1A (Homo sapiens) (Q9Y294 whole entry): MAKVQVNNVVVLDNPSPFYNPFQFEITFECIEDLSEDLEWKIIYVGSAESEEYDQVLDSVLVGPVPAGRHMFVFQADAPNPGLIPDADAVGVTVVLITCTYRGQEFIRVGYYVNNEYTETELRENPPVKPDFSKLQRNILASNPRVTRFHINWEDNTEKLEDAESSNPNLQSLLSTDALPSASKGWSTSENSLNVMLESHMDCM

Row | SMILES | IC50 at 72 h [1] [nM] | IC50 (A549) [nM] | IC50 at 72 h [2] [nM] | IC50 (MDA-MB-231 [3]) [nM] | IC50 [5] [nM] | Activity (MDA-MB-231 [6]) [%] | IC50 (HCT-116) [nM] | inhibition [7] | inhibition of ASF1a S166 phosphorylation (active/inactive call) [9] | further results
1 | CN1CCC(O/N=C2/C(=C3/C(=O)Nc4ccccc43)Nc3ccccc32)CC1 | > 2000 | 190 | > 2000 | 250 | 33.1 | 40 | 390 | Active | Active | Activity (MDA-MB-231 [4]): Active; Activity (MDA-MB-231 [8]): Active; Activity (MDA-MB-231 [10]): Active
2 | CN1CCCCC1CCO/N=C1/C(=C2/C(=O)Nc3ccc([N+](=O)[O-])cc32)Nc2ccccc21 (centres undefined) |  |  |  |  |  | 40 |  | Active | Active | 
3 | NC(=O)NO |  |  |  |  |  |  |  |  |  | inhibition (U2OS [11]): Active; inhibition [12]: Active; Activity (U2OS [13]): Active
4 | CN1CCCCC1CCO/N=C1/C(=C2/C(=O)Nc3ccc(F)cc32)Nc2ccccc21 (centres undefined) | > 2000 | 600 | > 2000 | 530 |  | 40 | 600 | Active | Active | 
5 | CN1CCCCC1CCO/N=C1/C(=C2/C(=O)Nc3ccccc32)Nc2ccccc21 (centres undefined) | > 2000 | 1210 | > 2000 | 1170 | 163 | <30 | 1280 |  |  | Activity (U2OS [14]): Active; inhibition [15]: Active; Activity (U2OS [16]): Active; Activity (U2OS [17]): Active; inhibition (U2OS [18]): Active; inhibition [19]: Active; Activity (U2OS [20]): Active; inhibition [21]: Active; Activity (U2OS [22]): Dde; Activity (U2OS [23]): Active
6 | CN1CCCCC1CCO/N=C1/C(=C2/C(=O)Nc3cc(F)ccc32)Nc2ccccc21 (centres undefined) |  |  |  |  |  | <30 |  |  |  | 
